# In patent US9193729B2, “Inhibiting transient receptor potential ion channel TRPA1” (Cubist Pharmaceuticals, Inc., priority 2011, dated 2015):
# Entries after “also recorded” stand apart in the source; their conditions may differ.
# Tests used:
# hTRPC5 = target: T1, hTRPC5 (Homo sapiens, UniProt Q9UL62); assay: Patch clamp selectivity, hTRPC5; type: cell-based; details: hTRPC5 vs TRPA1
# T1 sequence (Q9UL62 1-973): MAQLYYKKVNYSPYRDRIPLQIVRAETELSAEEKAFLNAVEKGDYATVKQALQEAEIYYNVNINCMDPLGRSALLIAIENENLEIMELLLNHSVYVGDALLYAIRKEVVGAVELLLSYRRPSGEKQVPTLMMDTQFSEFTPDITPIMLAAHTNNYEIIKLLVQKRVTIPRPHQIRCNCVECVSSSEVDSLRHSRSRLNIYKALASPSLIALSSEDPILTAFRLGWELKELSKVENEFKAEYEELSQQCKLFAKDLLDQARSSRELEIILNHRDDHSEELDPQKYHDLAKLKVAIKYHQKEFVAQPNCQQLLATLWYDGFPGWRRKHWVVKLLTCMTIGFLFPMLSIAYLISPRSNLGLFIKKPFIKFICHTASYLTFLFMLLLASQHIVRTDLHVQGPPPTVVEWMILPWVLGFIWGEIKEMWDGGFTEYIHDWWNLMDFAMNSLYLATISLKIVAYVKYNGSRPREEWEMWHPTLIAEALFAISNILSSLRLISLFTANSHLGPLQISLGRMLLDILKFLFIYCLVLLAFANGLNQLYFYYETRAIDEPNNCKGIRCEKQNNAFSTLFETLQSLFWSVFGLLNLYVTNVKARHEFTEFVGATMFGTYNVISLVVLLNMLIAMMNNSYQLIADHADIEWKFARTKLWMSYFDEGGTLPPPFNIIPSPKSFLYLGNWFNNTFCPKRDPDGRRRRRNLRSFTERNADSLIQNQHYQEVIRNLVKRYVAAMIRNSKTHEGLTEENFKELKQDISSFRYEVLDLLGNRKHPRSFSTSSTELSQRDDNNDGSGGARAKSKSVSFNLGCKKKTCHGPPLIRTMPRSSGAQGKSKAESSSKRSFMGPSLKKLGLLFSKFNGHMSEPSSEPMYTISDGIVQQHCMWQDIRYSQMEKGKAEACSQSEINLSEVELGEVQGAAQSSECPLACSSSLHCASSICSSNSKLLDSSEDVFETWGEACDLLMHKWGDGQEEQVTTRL
# Description: (§1) Data for TRPA1 inhibition and the selectivity of TRPA1 inhibition was obtained by this method for the compound of Formula (Ia) and included in Table 1 and Table 2. All currents were recorded in whole-cell configuration using EPC-9 and EPC-10 amplifiers and Patchmaster software (HEKA). […] The standard pipette solution consisted of 140 mM CsAsp, 10 mM EGTA, 10 mM HEPES, 2.27 mM MgCl2, 1.91 mM CaCl2, 4 mM MgATP, and 0.1-0.3 mM Na2GTP, with pH adjusted to 7.2 with CsOH. In addition, a solution containing 145 mM CsCl, 10 mM HEPES, 10 mM EGTA and 1 mM MgCl2 (pH 7.2 adjusted with CsOH) can be used. The standard bath solution contained 150 mM NaCl, 10 mM HEPES, 10 mM glucose, 4.5 mM KCl, 1 mM EGTA, 3 mM MgCl2, with pH adjusted to 7.4 with NaOH. In some instances, 2 mM CaCl2 was added in place of EGTA and the concentration of MgCl2 was reduced to 1 mM.
# (§2) Data were collected either by continuous recordings at −60 mV or by applying voltage ramps from a holding potential of 0 mV every 4 s. […] Inward and outward currents were analyzed from the ramps at −80 and 80 mV, respectively. […]
# (§3) Solutions were switched using a gravity-fed continuous focal perfusion system. […] Temperatures were confirmed using a thermistor (Warner Instruments, TA-29), with temperatures at the recorded cell estimated to be within +/−2° C. of those reported. […]
# female rats = assay: 7-day i.p. repeat dose screening toxicity study; type: in vivo, rat; details: female rats, 50 mg/kg/day i.p. for 7 consecutive days
# Description: The compound of Formula (Ia) was evaluated in a 7-day repeat dose screening toxicity study in female rats. In order to maximize systemic exposure, rats were administered compound of Formula (Ia) i.p. at 50 mg/kg/day for 7 consecutive days, to obtain the results shown in FIG. 6. Clinical chemistry parameters were evaluated on Days 3 and 8. Histopathology was performed on select organs including the liver, kidney, spleen, and lung.
# hTRPV6 = target: T2, hTRPV6 (Homo sapiens, UniProt Q9H1D0); assay: Patch clamp selectivity, hTRPV6; type: cell-based; details: hTRPV6 vs TRPA1
# T2 sequence (Q9H1D0 1-765): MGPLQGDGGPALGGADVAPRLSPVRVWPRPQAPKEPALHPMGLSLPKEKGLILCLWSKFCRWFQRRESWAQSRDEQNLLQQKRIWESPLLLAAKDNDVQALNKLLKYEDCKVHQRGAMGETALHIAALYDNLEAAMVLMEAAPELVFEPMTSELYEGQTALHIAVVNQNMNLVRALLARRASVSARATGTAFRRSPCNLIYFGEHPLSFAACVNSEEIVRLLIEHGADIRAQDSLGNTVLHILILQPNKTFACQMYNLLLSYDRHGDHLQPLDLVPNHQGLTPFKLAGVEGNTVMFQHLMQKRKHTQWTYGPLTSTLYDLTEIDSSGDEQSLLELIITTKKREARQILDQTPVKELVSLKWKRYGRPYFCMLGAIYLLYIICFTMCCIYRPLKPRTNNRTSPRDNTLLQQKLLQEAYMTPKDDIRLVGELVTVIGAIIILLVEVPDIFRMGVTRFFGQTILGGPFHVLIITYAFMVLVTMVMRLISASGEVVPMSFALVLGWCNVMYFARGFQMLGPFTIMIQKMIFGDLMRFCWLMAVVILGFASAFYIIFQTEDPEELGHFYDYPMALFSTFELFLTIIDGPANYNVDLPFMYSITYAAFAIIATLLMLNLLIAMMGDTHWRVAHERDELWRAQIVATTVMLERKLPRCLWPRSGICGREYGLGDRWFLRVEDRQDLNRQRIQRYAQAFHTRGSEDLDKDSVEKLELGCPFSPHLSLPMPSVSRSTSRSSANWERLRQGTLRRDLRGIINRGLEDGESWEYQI
# Description: as §1, §2, §3
compound,measurement,setting,value
C[C@H]1CCCN1c1ncc(-c2cccc(NC(=O)Cn3cnc4c3c(=O)n(C)c(=O)n4C)n2)cn1 [Formula (Ia)],Fold Selectivity Compared to TRPA1,hTRPC5,>100 Fold
same,"histopathology of liver, kidney, spleen, lung",female rats; 50 mg/kg/day,"No histopathological findings in the liver, kidney, spleen, or lung; also recorded: no adverse effects"
same,"clinical signs, body weight, clinical chemistry parameters",female rats; Days 3 and 8,"no adverse clinical signs, changes in body weight, or changes in clinical chemistry parameters were noted"
same,Fold Selectivity Compared to TRPA1,hTRPV6,~370 Fold
